We go through 15 molecules from PMC11531508 (Scientific Reports, 2024).

In this assay the target is AChE (Electrophorus electricus) (Electrophorus electricus, UniProt O42275). Put plainly: In vitro acetylcholinesterase inhibition assay. In kind it is biochemical.
Sequence of AChE (Electrophorus electricus) (O42275 24-633): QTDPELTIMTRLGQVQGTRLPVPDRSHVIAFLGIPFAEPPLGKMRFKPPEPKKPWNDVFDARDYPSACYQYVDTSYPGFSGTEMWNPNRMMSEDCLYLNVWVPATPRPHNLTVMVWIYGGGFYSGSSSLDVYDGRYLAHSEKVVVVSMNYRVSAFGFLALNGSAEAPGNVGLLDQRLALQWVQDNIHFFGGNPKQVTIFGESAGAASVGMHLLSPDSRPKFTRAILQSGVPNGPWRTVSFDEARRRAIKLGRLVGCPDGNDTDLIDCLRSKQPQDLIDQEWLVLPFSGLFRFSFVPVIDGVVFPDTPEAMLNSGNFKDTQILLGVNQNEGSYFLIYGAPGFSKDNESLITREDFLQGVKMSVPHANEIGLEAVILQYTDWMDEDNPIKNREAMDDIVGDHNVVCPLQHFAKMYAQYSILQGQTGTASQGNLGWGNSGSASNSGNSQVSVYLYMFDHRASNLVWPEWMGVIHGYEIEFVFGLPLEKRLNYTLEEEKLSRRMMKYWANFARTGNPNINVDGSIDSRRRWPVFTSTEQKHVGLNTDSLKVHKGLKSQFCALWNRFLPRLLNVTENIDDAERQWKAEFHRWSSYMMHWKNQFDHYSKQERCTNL
Consider `COc1cc(OCCCCCOc2cc(=O)oc3ccccc23)ccc1-c1nc2ccccc2s1` [Compound 3j, 4-((5-(4-(Benzo[d]thiazol-2-yl)-3-methoxyphenoxy)pentyl)oxy)-2H-chromen-2-one], for which the IC50 – broadly, the concentration at which inhibition is half-maximal – is 7.5 ± 0.16 µM.

Turning to `O=c1cc(OCCCCCCOc2ccc(-c3nc4ccccc4s3)cc2)c2ccccc2o1` [Compound 3k, 4-((6-(4-(Benzo[d]thiazol-2-yl)phenoxy)hexyl)oxy)-2H-chromen-2-one], the half-inhibitory concentration (IC50) is 35.8 ± 0.3 µM.

`COc1cc(-c2nc3ccccc3s2)ccc1OCCCCCCOc1cc(=O)oc2ccccc12` [Compound 3l, 4-((6-(4-(Benzo[d]thiazol-2-yl)-2-methoxyphenoxy)hexyl)oxy)-2H-chromen-2-one] registered an IC50 of 33.2 ± 0.28 µM.

Molecule `COc1cc(OCCCCCCOc2cc(=O)oc3ccccc23)ccc1-c1nc2ccccc2s1` [Compound 3o, 4-((6-(4-(Benzo[d]thiazol-2-yl)-3-methoxyphenoxy)hexyl)oxy)-2H-chromen-2-one] yielded an IC50 of 30.7 ± 0.23 µM.

As for `CCOc1cc(-c2nc3ccccc3s2)ccc1OCCCCOc1cc(=O)oc2ccccc12` [Compound 3c, 4-(4-(4-(Benzo[d]thiazol-2-yl)-2-ethoxyphenoxy)butoxy)-2H-chromen-2-one], it took 15.8 ± 0.18 µM to reach half-maximal inhibition (IC50).

`COc1cc(-c2nc3ccccc3s2)cc(OC)c1OCCCCCOc1cc(=O)oc2ccccc12` [Compound 3i, 4-((5-(4-(Benzo[d]thiazol-2-yl)-2,6-dimethoxyphenoxy)pentyl)oxy)-2H-chromen-2-one] came in with an IC50 of 2.7 ± 0.1 µM.

As for `O=c1cc(OCCCCCOc2ccc(-c3nc4ccccc4s3)cc2)c2ccccc2o1` [Compound 3f, 4-((5-(4-(Benzo[d]thiazol-2-yl)phenoxy)pentyl)oxy)-2H-chromen-2-one], the IC50 was found to be 8.5 ± 0.18 µM.

`COc1cc(-c2nc3ccccc3s2)ccc1OCCCCCOc1cc(=O)oc2ccccc12` [Compound 3g, 4-((5-(4-(Benzo[d]thiazol-2-yl)-2-methoxyphenoxy)pentyl)oxy)-2H-chromen-2-one] came in with an IC50 of 6.8 ± 0.13 µM.

Molecule `CCOc1cc(-c2nc3ccccc3s2)ccc1OCCCCCCOc1cc(=O)oc2ccccc12` [Compound 3m, 4-((6-(4-(Benzo[d]thiazol-2-yl)-2-ethoxyphenoxy)hexyl)oxy)-2H-chromen-2-one] showed an IC50 of 27.9 ± 0.2 µM.

Molecule `COc1cc(OCCCCOc2cc(=O)oc3ccccc23)ccc1-c1nc2ccccc2s1` [Compound 3e, 4-(4-(4-(Benzo[d]thiazol-2-yl)-3-methoxyphenoxy)butoxy)-2H-chromen-2-one] returned a 50% inhibitory concentration (IC50) of 18.7 ± 0.28 µM.

`COc1cc(-c2nc3ccccc3s2)ccc1OCCCCOc1cc(=O)oc2ccccc12` [Compound 3b, 4-(4-(4-(Benzo[d]thiazol-2-yl)-2-methoxyphenoxy)butoxy)-2H-chromen-2-one] showed an IC50 of 16.5 ± 0.23 µM.

`COc1cc(-c2nc3ccccc3s2)cc(OC)c1OCCCCOc1cc(=O)oc2ccccc12` [Compound 3d, 4-(4-(4-(Benzo[d]thiazol-2-yl)-2,6-dimethoxyphenoxy)butoxy)-2H-chromen-2-one]: the half-inhibitory concentration (IC50) came out at 6.8 ± 0.1 µM.

`COc1cc(-c2nc3ccccc3s2)cc(OC)c1OCCCCCCOc1cc(=O)oc2ccccc12` [Compound 3n, 4-((6-(4-(Benzo[d]thiazol-2-yl)-2,6-dimethoxyphenoxy)hexyl)oxy)-2H-chromen-2-one] returned a half-inhibitory concentration (IC50) of 12.1 ± 0.19 µM.

The molecule `O=c1cc(OCCCCOc2ccc(-c3nc4ccccc4s3)cc2)c2ccccc2o1` [Compound 3a, 4-(4-(4-(Benzo[d]thiazol-2-yl)phenoxy)butoxy)-2H-chromen-2-one] returned an IC50 of 4.23 ± 0.11 µM.

`CCOc1cc(-c2nc3ccccc3s2)ccc1OCCCCCOc1cc(=O)oc2ccccc12` [Compound 3h, 4-((5-(4-(Benzo[d]thiazol-2-yl)-2-ethoxyphenoxy)pentyl)oxy)-2H-chromen-2-one] yielded an IC50 of 6.5 ± 0.12 µM.
